# Laboratory results: patent US20070292403A1, “Methods of treating a neurological disorder with creatine monohydrate” (priority 2006, published 2007)
# Like-named read-outs stand apart in the source and are kept apart here.
# Key:
# Type in all cases: in vivo, human
# [1] = system: subjects with Huntington's disease; assay: Example 1: tolerability, safety and clinical (UHDRS) measures of creatine 8 g/day in Huntington's disease, randomized placebo-controlled; design: Serum creatinine: unit: mg/dL; settings: for Serious adverse events / Study withdrawal before week 24: monohydrate
# Description: Study design. Sixty-four subjects were enrolled at four sites. Eligible subjects were randomized to 8 g/day of creatine monohydrate or placebo by computer-generated blocked randomization with site stratification. Treatment was administered as chewable wafers twice daily for 16 weeks. A medical monitor and independent safety committee reviewed clinical data monthly. Consent, study procedures, and case report forms were approved by the institutional review board at each site. Blood samples for analysis of serum biomarkers were obtained with consent from 30 age-appropriate individuals without neurological illnesses.
# Eligibility criteria. Eligible subjects were 18 years of age and older with a diagnosis of Huntington's disease confirmed by genetic testing, a total functional capacity score of ≧5, and a caregiver to witness consent and monitor compliance. Exclusion criteria included previous creatine exposure within 30 days of baseline; underlying hematological, hepatic, or renal disease; screening white blood cell count <3,800/mm^3; creatinine >2.0 mg/dL or alanine aminotransferase greater than twice the upper normal limit; or unstable medical/psychiatric illness.
# (§1) Study protocol. Subjects were screened within 25 days of randomization (baseline visit). Screening included assessment of eligibility criteria, medical history, physical examination, Unified Huntington's Disease Rating Scale (UHDRS), EKG, DNA analysis, complete blood count, chemistry panel, and urinalysis. Subjects were on study drug (creatine or placebo) for 16 weeks, followed by an 8-week washout. Study visits occurred at baseline, weeks 8, 16, and 24 with telephone contacts at weeks 1, 10 and 20. Physical examination was done at screening and week 16. UHDRS scores, vital signs, adverse event assessment, and safety laboratory tests were repeated at all visits. Blood was collected for serum creatine levels and serum 8-hydroxy-2′-deoxyguanosine (8OH2′dG), a measure of oxidative injury affecting DNA. The later was analyzed in the samples from two sites. Magnetic resonance spectroscopy (MRS; STEAM; TR/TE=6000/20 milliseconds) of frontal cortex (voxel size=56 cc) and occipital cortex (voxel size=18 cc) performed at one site was analyzed for this report. Subject compliance was assessed by wafer counts.
# Statistical analysis. The primary outcome measure was tolerability. […] Within 27 subjects per group, there was a 94% power to detect an absolute difference of 50% or more between the placebo group and the active treatment group assuming a 15% dropout rate. In accordance with intent to treat, all randomized subjects were included in safety and tolerability analysis. Tolerability was assessed by comparing the proportion of treatment failures in creatine and placebo groups using χ^2 test with continuity correction. As the primary interest was in detecting intolerability in the active group, a one-sided test was used (significance=0.05). This was also applied to assess adverse events and laboratory abnormalities. The laboratory score changes from screening were analyzed by repeated-measures analysis of variance (ANOVA), and the differences between visits were analyzed by paired t test. Demographic and baseline variables were summarized for each group, and comparisons made using Fischer's exact test and continuous variables were compared using t test. Changes in UHDRS motor, cognitive, behavioral, and functional component subscores were measured at baseline and weeks 8, 16, and 24 and analyzed by mixed-model ANOVA.
# [2] = system: serum 8-hydroxy-2′-deoxyguanosine (8OH2′dG); assay: Example 1: serum 8OH2'dG biomarker of oxidative injury to DNA; settings: baseline to 16 weeks, 8 g/day; SD=13.93; placebo increase 5.87; p<0.0042
# Description: as §1
# [3] = system: symptomatic subjects with Huntington's disease; assay: Example 3: open-label dose escalation (10-40 grams per day), tolerability, safety and UHDRS
# Description: (§2) A two-phase open-label study was conducted to better determine an optimal dose of creatine symptomatic subjects with Huntington's disease. A dose-escalation study (10-40 grams per day) was conducted to determine the maximally tolerated dose (MTD) followed by a de-escalation phase to assess whether brain and serum levels of creatine might be maximal at doses lower than the MTD. Ten subjects were enrolled and followed prospectively for two weeks at each done level increasing in 5-gram increments during dose escalation that lasted 13 weeks. Assessments at each visit included UHDRS, EKG, vital signs, clinical safety and research labs. MRI spectroscopy was conducted prior to baseline at peak done (40 grams) and one month after de-escalation to either 30 or 15 grams daily. To determine an optimal dose, pharmacokinetic as well as clinical data were considered. Once the maximal dose was reached, subjects were assigned one of two lower doses previously taking (15 grams a day (n=5) or 30 grams a day (n=5)). Serum creatine was assessed at baseline, at the end of each 2-week dose escalation step and at the end of the de-escalation phase to assess the correspondence between serum and brain levels of creatine at steady state.
# [4] = system: serum 8OH2′dG; assay: Example 3: serum 8OH2'dG suppression in dose escalation
# Description: as §2
# [5] = system: symptomatic subjects with Huntington's disease
# Description: as §2
# Subjects at the end of this study were given the option to continue a long-term study to evaluate the long-term safety and tolerability of high dosage of creatine. Subjects have been followed for nine months on creatine. […] Adverse events have been infrequent and mild to moderate in grade and 30 grams daily creatine has been well-tolerated for 9 months. Laboratory abnormalities have been mild. […] Thus long term administration of 30 grams daily of creatine appears to be safe and well-tolerated.
# [6] = 8 g/day, n = 32, frequency, listed as creatine
# [7] = adverse event frequency, 8 g/day, n = 32
# [8] = De-escalation Baseline, 15 g/day, N 5
# [9] = De-escalation Baseline, 30 g/day, N 5
# [10] = Week 24 (Visit 4), 30 g/day, N 10
smiles,measurement,setting,value
"CN(CC(=O)O)C(=N)N [Creatine, creatine monohydrate]",Laboratory abnormalities,[1]; 8 g/day,mild reversible serum creatinine and alkaline phosphatase elevations
same,Tolerability,"[1]; 8 g/day, chewable wafers twice daily, 16 weeks",well tolerated
same,"All adverse events: mild, moderate and severe, (%)","[1]; 8 g/day, n = 32",86.9%
same,"All adverse events: mild, moderate and severe, no.","[1]; 8 g/day, n = 32, frequency",26
same,Serious adverse events,[1]; [6],three
same,Study withdrawal before week 24,[1]; [6],three
same,Serious adverse events,"[1]; 8 g/day, n = 32, frequency",3
same,Study withdrawal before week 24,"[1]; 8 g/day, n = 32, frequency",2
same,Body mass index and UHDRS subscores compared with baseline,"[1]; 8 g/day, paired t test",did not change with treatment
same,Apathy,[1]; [7],1
same,Cough,[1]; [7],1
same,Depression,[1]; [7],4
same,Dizziness,[1]; [7],1
same,Dysphagia,[1]; [7],1
same,Fall,[1]; [7],3
same,Hematuria,[1]; [7],1
same,Increased movements,[1]; [7],1
same,Irritability,[1]; [7],3
same,Lethargy,[1]; [7],2
same,Vomiting,[1]; [7],1
same,Serum creatinine,"[1]; creatine group by week 8, from 0.88±0.19, p<0.01, elevated at week 16, baseline at washout, in mg/dL (unit assumed)",1.04±0.24
same,Average reduction of serum 8OH2′dG,[2],9.11 pg/mL
same,Dose tolerated by all subjects during dose escalation,"[3]; 10 subjects, 5-gram increments, two weeks per dose level, no withdrawals",up to 40 grams/day
same,Changes in UHDRS subscores,[3]; dose escalation 10-40 grams per day,not significant
same,Adverse events at high doses,[3]; in vivo,increased numbers of adverse events
same,Average creatinine level,[3]; in vivo,1.28 ± 0.16 mg/dL
same,BUN levels,[3]; in vivo,did not increase
same,"Serious adverse events, laboratory abnormalities, EKG",[3]; in vivo,"no serious adverse events, no significant laboratory abnormalities and no EKG alterations"
same,Tolerability at selected dose,[3]; in vivo,excellent tolerability
same,"Doses associated with maximum suppression of serum 8OH2′dG, levels similar to normal controls",[4],greater than 25 grams daily
same,Serum 8OH2′dG,[4]; greater than seen with 8 grams per day,dose dependent suppression
same,Independence Score,[5]; [8],75.0 (8.7)
same,Stroop Color Naming,[5]; [8],52.8 (22.9)
same,Stroop Interference,[5]; [8],23.8 (13.1)
same,Stroop Word Reading,[5]; [8],56.0 (24.3)
same,Symbol Digit Modalities Test,[5]; [8],29.0 (10.6)
same,Total Chorea Score,[5]; [8],5.5 (1.7)
same,Total Functional Assessment,[5]; [8],10.6 (9.8)
same,Total Functional Capacity,[5]; [8],8.8 (1.8)
same,Verbal Fluency Test,[5]; [8],15.8 (16.0)
same,Independence Score,[5]; [9],82.5 (14.4)
same,Stroop Color Naming,[5]; [9],57.8 (24.2)
same,Stroop Interference,[5]; [9],40.0 (19.6)
same,Stroop Word Reading,[5]; [9],90.0 (24.2)
same,Symbol Digit Modalities Test,[5]; [9],34.0 (20.5)
same,Total Chorea Score,[5]; [9],7.8 (4.3)
same,Total Functional Assessment,[5]; [9],15.8 (10.2)
same,Total Functional Capacity,[5]; [9],9.8 (3.4)
same,Verbal Fluency Test,[5]; [9],28.3 (15.8)
same,Independence Score,[5]; [10],82.5 (8.9)
same,Stroop Color Naming,[5]; [10],51.7 (21.37)
same,Stroop Interference,[5]; [10],31.3 (15.23)
same,Stroop Word Reading,[5]; [10],62.7 (24.11)
same,Symbol Digit Modalities Test,[5]; [10],30.56 (12.63)
same,Total Chorea Score,[5]; [10],7.0 (4.1)
same,Total Functional Assessment,[5]; [10],19.6 (4.1)
same,Total Functional Capacity,[5]; [10],8.7 (2.2)
same,Verbal Fluency Test,[5]; [10],26.6 (17.67)
same,Serious adverse effects,"[5]; human, in vivo",no serious adverse effects
same,Tolerability,"[5]; human, in vivo",well-tolerated
same,Clinical changes (UHDRS subscores),"[5]; long-term follow-up, up to 9 months",no significant clinical changes
